We go through 1 compound from US9339469B2, “R(+)-N-methyl-propargyl-aminoindan” (Teva Pharmaceutical Industries, Ltd., priority 2011, dated 2016).

For series [1] the following is noted: melt phase, 78 and 90° C. for 24, 72 or 137 hrs. The method, then: Samples intended to degrade under en inert atmosphere were flushed with nitrogen for 5 minutes before closing with a stepper.
The samples were introduced into a pre-heated oven and held at a constant temperature of 78 and 90° C. for 24, 72 or 137 hrs. After completion of the treatment the samples were refrigerated and analyzed.

For series [2] the following is noted: in vivo; cited from earlier work.

For `C#CCN[C@@H]1CCc2ccccc21` [rasagiline, R(+)-N-propargyl-1-aminoindan], in series [1], the “formation of R(+)-N-methyl-PAI (summary of Table 1)” value was “no R(+)-N-methyl-PAI was formed”. For the same compound, the absolute bioavailability entry in series [2] was “about 36%”.
